In US11161824B2, “Heterocyclic lipoxin analogs and uses thereof” (University College Dublin, National University of Ireland, …, priority 2016, dated 2021):

Key:
Th1 cytokine release = experiment: LPS-induced Th1 cytokine release from THP-1 LUCIA monocytes; type: cell-based; settings: 10^-11, 10^-9 or 10^-7 M; 50 ng/ml LPS 24 h; IL1β, IL6, IL12p70, IFNγ, TNF-α as per figure
Description: FIG. 2A-2E are graphs showing imidazole-lipoxin analogues (1R)-9 and (1S)-9 reduce LPS-induced Th1 cytokine release. 1×10^5 THP-1 LUCIA monocytes were pre-treated for 30 min with […], 10^−9 M or 10^−7 M of LXA4 1 and imidazole-lipoxin analogues (1R)-9 and (1S)-9, vehicle or appropriate controls. After 24 h from stimulation with 50 ng/ml of LPS, supernatants were collected and […] (FIG. 2A), IL6 (FIG. 2B), IL12p70 (FIG. 2C), IFNγ (FIG. 2D), and TNF-α (FIG. 2E) levels were measured. Data are expressed as % cytokine secretion relative to LPS alone ±SEM (n=3), *=p<0.05, **=p<0.01, ***=p<0.001.
FIG. 6A-6C are graphs showing that quinoxaline-lipoxin analogue (1R)-CT-4-43 inhibits LPS-induced Th1 cytokine release. 1×10^5 THP-1 LUCIA monocytes were pre-treated for 30 min with […], 10^−9 M or 10^−7 M of LXA4 and quinoxaline-lipoxin analogue (1R)-CT-4-43, vehicle or appropriate controls. After 24 h from stimulation with 50 ng/ml of LPS, supernatants were collected and IL13 (FIG. 6A), IL6 (FIG. 6B), and IFNγ (FIG. 6C) levels were measured. Data are expressed as % cytokine secretion relative to LPS alone ±SEM (n=3), *=p<0.05, **=p<0.01, ***=p<0.001.
FIG. 9A-9C are graphs showing that the isoquinoline-lipoxin analogue RB3 inhibit LPS-induced Th1 cytokine release. 1×10^5 THP-1 LUCIA monocytes were pre-treated for 30 min with 10^−11 M, 10^−9 M or 10^−7 M of LXA4 and isoquinoline-lipoxin analogue (1R)-RB3, vehicle or appropriate controls. After 24 h from stimulation with 50 ng/ml of LPS, supernatants were collected and IL1β(FIG. 9A), IL6 (FIG. 9B), and IL12p70 (FIG. 9C) levels were measured. Data are expressed as % cytokine secretion relative to LPS alone ±SEM (n=3), *=p<0.05, **=p<0.01, ***=p<0.001.

NFkB [1] = experiment: LPS-induced NFkB-driven luciferase activity in THP-1 LUCIA monocytes; type: cell-based; settings: for reduction of LPS-induced NFkB luciferase activity: 30 min pre-treatment, then 24 h with 50 ng/ml LPS, relative to LPS
Description: 1×10^5 THP-1 LUCIA monocytes were pre-treated for 30 min with native LXA4 1 (FIG. 1A), imidazole analogues 9 [(1R)-epimer (FIG. 1B) and (1S)-epimer (FIG. 1C)], vehicle or appropriate controls, at increasing doses ranging from 10^−12 M up to 10^−6 M. 10^8 HKLM was used as positive control for NFkB activation. After 24 h from stimulation with 50 ng/ml of LPS, supernatants were collected and NFkB-driven luciferase was measured. (d) Data are expressed as % Relative Luminescence Unit relative to LPS alone ±SEM (n=3), *=p<0.05, **=p<0.01, ***=p<0.001. Graphs display the statistical analysis of the tested compound vs LPS.
(§1) The experiments were based around a model which utilised 1×10^5/ml THP-1 monocytes stably expressing NFkB luciferase reporter gene (LUCIA).
(§2) Anti-inflammatory activity was assessed by testing 10 analogues (6 quinoxalines & 4 isoquinolines) in presence & absence of lipopolysaccharide (LPS). For each analogue, a dose-response from 10^−12 M up to 10^−6 M was performed. The vehicle control corresponded to 0.1% Ethanol. NFkB activator, Heat-Killed Listeria Monocytogenes (HKLM) (10^7 cells/ml), were used as positive control for luciferase induction. 10^−6 M Dexamethasone (Dex) was used as positive control for luciferase inhibition. […] Benzo-lipoxin A4 (BLX) was used as positive control for LXA4 analogues.
A 2-tailed, assuming unequal variance T-test analysis was performed on three independent experiments for each assay. P-values were considered significant when p<0.05. If p<0.05, then * or $; if p<0.01, then ** or $$ or ##; if p<0.001, then *** or $$$ or ###.
Cells were seeded in 96-well plates and pre-treated with increasing doses of LXA4, analogues or controls for 30 min, followed by 24 h of co-incubation with 50 ng/ml LPS. […] (*=statistical analysis vs LPS; $=statistical analysis vs LXA4)

NFkB [2] = experiment: NFkB-driven luciferase activity in resting conditions (absence of LPS) in THP-1 LUCIA monocytes; type: cell-based; settings: 10^-12 M to 10^-6 M, 24 h
Description: 1×10^5 THP-1 LUCIA monocytes were treated for 30 min with native (a) LXA4 1, its stable imidazole-lipoxin analogues (1R)-9 and (1S)-9, vehicle or appropriate controls, at increasing doses ranging from 10^−12 M up to 10^−6 M. After 24 h, supernatants were collected and NFkB-driven luciferase was measured. Data are expressed as % Relative Luminescence Unit relative to LPS alone ±SEM (n=3).
as §1, §2

[3] = system: carrageenan-induced paw swelling; experiment: Murine carrageenan-induced paw swelling; type: in vivo, C57Bl/6 mice; settings: 45 ng/mouse i.p. 30 mins before intrapaw 1% carrageenan; 4-72 h
Description: CT4-43 attenuates carageenan-induced paw swelling—Mice [male C57Bl/6] were administered vehicle [0.01% EtOH] or CT4-4 [45 ng/mouse i.p] 30 mins before intrapaw injection of 1% carageenan. Paw swelling was monitored over time [4-72 h] using an external lever gauge [Kroeplin]. Data are presented as mean+/−SEM, n=3 mice/treatment group.

- effect on LPS-induced NFkB-driven luciferase activity (in words) (NFkB [1]; doses 10^-12 M to 10^-6 M, 50 ng/ml LPS, 24 h): attenuating
- potency in reducing LPS-induced NFkB activity, comparison in words (NFkB [1]; versus LXA4 or other analogues): significantly more potent than LXA4
- NFkB-driven luciferase activity in resting conditions (in words) (NFkB [2]): does not elicit
SMILES: CCCCC[C@@H](O)c1nc2ccccc2nc1/C=C/[C@@H](O)[C@@H](O)CCCC(=O)OC [(1R)-CT4-43, Methyl (5S,6R,E)-5,6-dihydroxy-8-(3-((R)-1-hydroxyhexyl)quinoxalin-2-yl)oct-7-enoate]
- effect on LPS-induced Th1 cytokine release (in words) (Th1 cytokine release): inhibits
- reduction of LPS-induced NFkB luciferase activity (NFkB [1]; 1 nM): 38.2±8.2%
- reduction of LPS-induced NFkB luciferase activity (NFkB [1]; 10 nM): 34.8±4.2%
- effect on carrageenan-induced paw swelling (in words) [3]: attenuates
